Measurements reported in US10793568B2, “Hormone receptor modulators for treating metabolic conditions and disorders” (ARDELYX, INC., priority 2016, dated 2020).

Legend:
[1] = molecular target: human Farnesoid X receptor ligand-binding domain/Gal4 DNA binding domain chimera (Homo sapiens (Human), UniProt Q96RI1); assay: Cell-based assay of FXR activation (FXR-UAS-bla HEK 293T beta-lactamase reporter); conditions: cellular FXR beta-lactamase reporter assay; for Emax: HEK-293T, extent of activation relative to GW4064, read-out: % Efficacy; for EC50: FXR-UAS-bla HEK 293T cells, 16 h, pEC50 = -log EC50
Method in brief: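 Readout is cleavage of the CCF4 FRET substrate (409 nm excitation, blue 447 nm signal) by beta-lactamase, expressed under UAS control after a Gal4–human FXR LBD chimera is activated in HEK 293T cells. Compounds were added as 3-fold dilutions for 16 h at 37 °C in 2% charcoal-stripped FBS medium. Curves were fit to a 3-parameter logistic equation to give pEC50, with % activation relative to GW4064.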

[2] = molecular target: ligand binding domain of human FXR (Homo sapiens (Human), UniProt Q96RI1); assay: FXR ligand binding assay (LanthaScreen TR-FRET, SRC2-2 peptide recruitment); conditions: for pEC50: -log EC50, concentration required to produce 50% activation; for Emax: extent of activation relative to GW4064, read-out: % Efficacy
ligand binding domain of human FXR, sequence (Q96RI1 262-486): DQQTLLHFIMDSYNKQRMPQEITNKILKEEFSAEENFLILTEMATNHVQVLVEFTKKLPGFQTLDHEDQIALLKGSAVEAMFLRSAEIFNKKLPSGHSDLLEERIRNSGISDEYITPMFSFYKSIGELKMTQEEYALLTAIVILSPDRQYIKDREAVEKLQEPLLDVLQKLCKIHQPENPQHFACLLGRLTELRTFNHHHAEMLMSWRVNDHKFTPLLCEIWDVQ

human Farnesoid X receptor ligand-binding domain/Gal4 DNA binding domain chimera, sequence (Q96RI1 262-486, change not shown): as the sequence (Q96RI1 262-486) above
human Farnesoid X receptor ligand-binding domain/Gal4 DNA binding domain chimera, sequence (P04386 1-147 partner): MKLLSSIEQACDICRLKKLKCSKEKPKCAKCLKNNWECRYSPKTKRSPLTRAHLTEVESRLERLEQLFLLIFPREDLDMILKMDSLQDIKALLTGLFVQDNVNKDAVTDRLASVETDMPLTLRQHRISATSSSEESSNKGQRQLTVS

| Structure (SMILES) | Emax [1] | EC50 [1] | pEC50 [2] | Emax [2] |
| --- | --- | --- | --- | --- |
| O=C(O)c1cc(F)c2nc(N3C[C@@H]4C[C@H]3C[C@@H]4OC(=O)c3c(-c4c(Cl)cccc4Cl)noc3C3CC3)sc2c1 [Compound I-34, 2-[(1S,4S,5S)-5-[5-cyclopropyl-3-(2,6-dichlorophenyl)-1,2-oxazole-4-carbonyloxy]-2-azabicyclo[2.2.1]heptan-2-yl]-4-fluoro-1,3-benzothiazole-6-carboxylic Acid] | 15% | 398 nM | >4.5 |  |
| O=C(O)c1ccc2nc(N3C[C@@H]4C[C@H]3C[C@@H]4OC(=O)c3c(-c4c(Cl)cccc4Cl)noc3C3CC3)sc2c1 [Compound I-35, 2-[(1S,4S,5S)-5-[5-cyclopropyl-3-(2,6-dichlorophenyl)-1,2-oxazole-4-carbonyloxy]-2-azabicyclo[2.2.1]heptan-2-yl]-1,3-benzothiazole-6-carboxylic Acid] | 19% | 631 nM | >4.5 |  |
| COC(=O)c1cc(F)c2nc(N3C[C@@H]4C[C@H]3C[C@@H]4OCc3c(-c4c(Cl)cccc4Cl)noc3C3CC3)sc2c1 [Compound I-36, Methyl 2-[(1S,4S,5S)-5-{[5-cyclopropyl-3-(2,6-dichlorophenyl)-1,2-oxazol-4-yl]methoxy}-2-azabicyclo[2.2.1]heptan-2-yl]-4-fluoro-1,3-benzothiazole-6-carboxylate] | 50% | 6310 nM | 5.4 | 86% |
| O=C(O)c1cc(F)c2nc(N3C[C@@H]4C[C@H]3C[C@@H]4OCc3c(-c4c(Cl)cccc4Cl)noc3C3CC3)sc2c1 [Compound I-37, 2-[(1S,4S,5S)-5-{[5-cyclopropyl-3-(2,6-dichlorophenyl)-1,2-oxazol-4-yl]methoxy}-2-azabicyclo[2.2.1]heptan-2-yl]-4-fluoro-1,3-benzothiazole-6-carboxylic Acid] | 82% | 1580 nM | >4.5 | 0% |
| O=C(O)c1cc(F)c2nc(N3C[C@H]4C[C@@H]3C[C@@H]4OC(=O)c3c(-c4c(Cl)cccc4Cl)noc3C3CC3)sc2c1 [Compound I-38, 2-[(1R,4R,5S)-5-[5-cyclopropyl-3-(2,6-dichlorophenyl)-1,2-oxazole-4-carbonyloxy]-2-azabicyclo[2.2.1]heptan-2-yl]-4-fluoro-1,3-benzothiazole-6-carboxylic Acid] | 96% | 200 nM | 6.3 | 56% |
| O=C(O)c1cc(F)c2nc(N3C[C@H]4C[C@@H]3C[C@@H]4OCc3c(-c4c(Cl)cccc4Cl)noc3C3CC3)sc2c1 [Compound I-39, 2-[(1R,4R,5S)-5-{[5-cyclopropyl-3-(2,6-dichlorophenyl)-1,2-oxazol-4-yl]methoxy}-2-azabicyclo[2.2.1]heptan-2-yl]-4-fluoro-1,3-benzothiazole-6-carboxylic Acid] | 105% | 50.1 nM | 7.8 | 96% |
| O=C(O)c1cc(F)c2nc(N3C[C@H]4C[C@@H]3C[C@H]4OC(=O)c3c(-c4c(Cl)cccc4Cl)noc3C3CC3)sc2c1 [Compound I-40, 2-[(1R,4R,5R)-5-[5-cyclopropyl-3-(2,6-dichlorophenyl)-1,2-oxazole-4-carbonyloxy]-2-azabicyclo[2.2.1]heptan-2-yl]-4-fluoro-1,3-benzothiazole-6-carboxylic Acid] |  | < 31600 nM | >4.5 |  |
| O=C(O)c1cc(F)c2nc(N3C[C@H]4C[C@@H]3C[C@H]4OCc3c(-c4c(Cl)cccc4Cl)noc3C3CC3)sc2c1 [Compound I-41, 2-[(1R,4R,5R)-5-{[5-cyclopropyl-3-(2,6-dichlorophenyl)-1,2-oxazol-4-yl]methoxy}-2-azabicyclo[2.2.1]heptan-2-yl]-4-fluoro-1,3-benzothiazole-6-carboxylic Acid] | 40% | 2510 nM | >4.5 |  |
| O=C(O)c1ccc(N2C[C@@H]3C[C@H]2C[C@H]3OC(=O)c2c(-c3c(Cl)cccc3Cl)noc2C2CC2)cc1 [Compound I-42, 4-[(1S,4S,5R)-5-[5-cyclopropyl-3-(2,6-dichlorophenyl)-1,2-oxazole-4-carbonyloxy]-2-azabicyclo[2.2.1]heptan-2-yl]benzoic Acid] | 110% | 39.8 nM | 7.6 | 166% |
| O=C(O)c1ccc(N2C[C@@H]3C[C@H]2C[C@H]3OC(=O)c2c(-c3c(Cl)cccc3Cl)noc2C2CC2)c(F)c1 [Compound I-43, 4-[(1S,4S,5R)-5-[5-cyclopropyl-3-(2,6-dichlorophenyl)-1,2-oxazole-4-carbonyloxy]-2-azabicyclo[2.2.1]heptan-2-yl]-3-fluorobenzoic Acid] | 124% | 6.31 nM | 7.8 | 176% |
| O=C(O)c1ccc(N2C[C@@H]3C[C@H]2C[C@H]3OC(=O)c2c(-c3c(Cl)cccc3Cl)noc2C2(F)CC2)c(F)c1 [Compound I-44, 4-[(1S,4S,5R)-5-[3-(2,6-dichlorophenyl)-5-(1-fluorocyclopropyl)-1,2-oxazole-4-carbonyloxy]-2-azabicyclo[2.2.1]heptan-2-yl]-3-fluorobenzoic Acid] | 107% | 10 nM | 7.6 | 152% |
| CS(=O)(=O)NC(=O)c1ccc(N2C[C@@H]3C[C@H]2C[C@H]3OC(=O)c2c(-c3c(Cl)cccc3Cl)noc2C2CC2)cc1 [Compound I-45, (1S,4S,5R)-2-[4-(methanesulfonylcarbamoyl)phenyl]-2-azabicyclo[2.2.1]heptan-5-yl 5-cyclopropyl-3-(2,6-dichlorophenyl)-1,2-oxazole-4-carboxylate] | 107% | 25.1 nM | 7.5 | 152% |
| CCCS(=O)(=O)NC(=O)c1ccc(N2C[C@@H]3C[C@H]2C[C@H]3OC(=O)c2c(-c3c(Cl)cccc3Cl)noc2C2CC2)cc1 [Compound I-46, (1S,4S,5R)-2-{4-[(propane-1-sulfonyl)carbamoyl]phenyl}-2-azabicyclo[2.2.1]heptan-5-yl 5-cyclopropyl-3-(2,6-dichlorophenyl)-1,2-oxazole-4-carboxylate] | 110% | 12.6 nM | 7.9 | 174% |
| O=C(NS(=O)(=O)C1CC1)c1ccc(N2C[C@@H]3C[C@H]2C[C@H]3OC(=O)c2c(-c3c(Cl)cccc3Cl)noc2C2CC2)cc1 [Compound I-47, (1S,4S,5R)-2-{4-[(cyclopropanesulfonyl)carbamoyl]phenyl}-2-azabicyclo[2.2.1]heptan-5-yl 5-cyclopropyl-3-(2,6-dichlorophenyl)-1,2-oxazole-4-carboxylate] | 106% | 15.8 nM | 7.8 | 174% |
| CS(=O)(=O)NC(=O)c1ccc(N2C[C@@H]3C[C@H]2C[C@H]3OC(=O)c2c(-c3c(Cl)cccc3Cl)noc2C2CC2)c(F)c1 [Compound I-48, (1S,4S,5R)-2-[2-fluoro-4-(methanesulfonylcarbamoyl)phenyl]-2-azabicyclo[2.2.1]heptan-5-yl 5-cyclopropyl-3-(2,6-dichlorophenyl)-1,2-oxazole-4-carboxylate] | 119% | 6.31 nM | 7.6 | 199% |
| CCCS(=O)(=O)NC(=O)c1ccc(N2C[C@@H]3C[C@H]2C[C@H]3OC(=O)c2c(-c3c(Cl)cccc3Cl)noc2C2CC2)c(F)c1 [Compound I-49, (1S,4S,5R)-2-{2-fluoro-4-[(propane-1-sulfonyl)carbamoyl]phenyl}-2-azabicyclo[2.2.1]heptan-5-yl 5-cyclopropyl-3-(2,6-dichlorophenyl)-1,2-oxazole-4-carboxylate] | 118% | 3.98 nM | 8 | 188% |
| O=C(O[C@@H]1C[C@@H]2C[C@H]1CN2c1ccc(-c2nn[nH]n2)cc1)c1c(-c2c(Cl)cccc2Cl)noc1C1CC1 [Compound I-50, (1S,4S,5R)-2-[4-(2H-1,2,3,4-tetrazol-5-yl)phenyl]-2-azabicyclo[2.2.1]heptan-5-yl 5-cyclopropyl-3-(2,6-dichlorophenyl)-1,2-oxazole-4-carboxylate] | 109% | 15.8 nM | 6.8 | 184% |
| O=C(O[C@@H]1C[C@@H]2C[C@H]1CN2c1ccc(-c2nn[nH]n2)cc1F)c1c(-c2c(Cl)cccc2Cl)noc1C1CC1 [Compound I-51, (1S,4S,5R)-2-[2-fluoro-4-(2H-1,2,3,4-tetrazol-5-yl)phenyl]-2-azabicyclo[2.2.1]heptan-5-yl 5-cyclopropyl-3-(2,6-dichlorophenyl)-1,2-oxazole-4-carboxylate] | 104% | 20 nM | 6.7 | 269% |
| O=C(O)c1ccc(N2C[C@@H]3C[C@H]2C[C@H]3OCc2c(-c3c(Cl)cccc3Cl)noc2C2CC2)cc1 [Compound I-52, 4-[(1S,4S,5R)-5-[[5-cyclopropyl-3-(2,6-dichlorophenyl)-1,2-oxazol-4-yl]methoxy]-2-azabicyclo[2.2.1]heptan-2-yl]benzoic acid] | 111% | 1 nM | 8.8 | 148% |
| O=C(O)c1ccc(N2C[C@@H]3C[C@H]2C[C@H]3OCc2c(-c3c(Cl)cccc3Cl)noc2C2CC2)c(F)c1 [Compound I-53, 4-[(1S,4S,5R)-5-[[5-cyclopropyl-3-(2,6-dichlorophenyl)-1,2-oxazol-4-yl]methoxy]-2-azabicyclo[2.2.1]heptan-2-yl]-3-fluorobenzoic acid] | 113% | 0.398 nM | 8.7 | 145% |
